Laboratory results reported in US20210052480A1, “USE OF CYCLIC PEPTIDES IN COSMETIC” (Sederma, priority 2018, published 2021).

Key:
Format in all cases: cell-based
HNFs [1] = assay: Comparative collagen I synthesis by fibroblasts, ELISA; conditions: 3 days
Experimental: HNFs were grown in 24-well plates for 24 hours. The cells were placed in contact or not with test products at different concentrations for 3 days. The collagen synthesis was evaluated by ELISA assay on the culture supernatant and the result was reduced to the number of cells.

HNFs [2] = assay: Comparative elastin synthesis by fibroblasts, ELISA; conditions: 12.5 ppm; 3 days
FHNs = assay: Comparative collagen I synthesis by fibroblasts, IMF; conditions: 6 days
Experimental: FHNs were grown in 24-well plates for 24 hours. The cells were placed in contact with test products (or their excipient) at different concentrations for 6 days. The collagen I produced by the cells was then quantified by immunofluorescence on the fixed mats, and the result was then reduced to the number of cells.

Substance	Collagen I production (ELISA method), comparison (HNFs [1]; 10 ppm)	Collagen I production (ELISA method), comparison (HNFs [1]; 15 ppm)	Production of elastin (ELISA method), comparison (HNFs [2])	Production of collagen I (IMF method), comparison (FHNs; 5 ppm)	Production of collagen I (IMF method), comparison (FHNs; 10 ppm)
Cyclo(-Met-Leu-Ile-Pro-Pro-Phe-Phe-Val-Ile) (MLIPPFFVI; cyclic; Synthetic peptide or Linum usitatissimum; (1)..(1) M can be oxidized into sulfoxide or sulfone; (1)..(9) Cyclic peptide) [Linusorb B2]	+36.2%; p <0.01	+39.2%; p <0.01	+43%; p <0.05	+34.2; dns	+41.8; p <0.01
cyclo(ILVPPFFLI) [Linusorb B3]	−0.4%; nds	+62.6%; p <0.01	+58%; p <0.05	+111.1; p <0.01	+121.7; p <0.01
